# Target: p97 ATPase WT (Homo sapiens (Human), UniProt P55072)
# Test: p97 ADP-Glo assay
# Format: biochemical
# Conditions: Table 3; read-out: ADPGlo IC50
# Text: ADP-Glo™ (Promega Corp.) is a bioluminescent, homogeneous assay that measures ADP formed from a biochemical reactions. Because of its high sensitivity, the assay is suitable for monitoring enzyme activities at very early substrate conversions requiring very low amount of enzymes.
# The ADP-Glo assay can be conducted as described in Chou, T.-F.; Bulfer, S. L.; Weihl, C.
# Chain of p97 ATPase WT (P55072 whole entry): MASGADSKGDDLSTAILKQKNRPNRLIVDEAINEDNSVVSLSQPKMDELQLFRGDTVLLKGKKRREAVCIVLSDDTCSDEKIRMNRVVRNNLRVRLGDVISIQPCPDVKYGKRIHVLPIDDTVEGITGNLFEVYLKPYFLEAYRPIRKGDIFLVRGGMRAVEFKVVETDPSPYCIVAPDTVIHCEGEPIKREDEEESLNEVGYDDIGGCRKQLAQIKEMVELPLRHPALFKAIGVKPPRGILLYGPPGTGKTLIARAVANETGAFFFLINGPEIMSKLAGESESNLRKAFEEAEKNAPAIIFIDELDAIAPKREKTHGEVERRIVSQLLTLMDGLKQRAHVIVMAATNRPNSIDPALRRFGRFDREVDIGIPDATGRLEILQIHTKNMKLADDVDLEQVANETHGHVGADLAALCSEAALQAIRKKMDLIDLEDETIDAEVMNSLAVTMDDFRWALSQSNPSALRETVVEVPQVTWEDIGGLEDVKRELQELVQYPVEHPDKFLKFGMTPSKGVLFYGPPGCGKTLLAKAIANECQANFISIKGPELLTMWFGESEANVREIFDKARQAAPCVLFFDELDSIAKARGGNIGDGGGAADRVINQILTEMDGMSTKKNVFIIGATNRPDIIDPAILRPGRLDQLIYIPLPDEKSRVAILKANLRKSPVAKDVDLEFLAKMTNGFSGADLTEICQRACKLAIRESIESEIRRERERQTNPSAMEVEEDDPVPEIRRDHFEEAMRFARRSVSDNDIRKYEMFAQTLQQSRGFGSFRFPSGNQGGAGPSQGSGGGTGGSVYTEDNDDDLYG
row,IC50 [nM],SMILES
1,510,COC(=O)c1ccc2[nH]c(-c3cccc(N4CCC(NC5CCN(C(C)C)CC5)CC4)c3)cc2c1
2,140,C[C@@H]1CN(CCNC2CCN(c3cccc(-c4cc5ccccc5[nH]4)c3)CC2)C[C@H](C)N1C
3,660,COc1ccc2[nH]c(-c3cccc(N4CCC(NCCN5CCN(C(C)C)CC5)CC4)c3)cc2c1
4,380,CN1CCC(NC2CCN(c3cccc(-c4cc5ccccc5[nH]4)c3)CC2)CC1
5,670,CCN(CC)C(=O)CCNC1CCN(c2cccc(-c3cc4cc(F)ccc4[nH]3)c2)CC1
6,380,CN1CCN(CCNC2CCN(c3cccc(-c4cc5ccccc5[nH]4)c3)CC2)CC1
7,680,[N-]=[N+]=Nc1cccc(CNC2CCN(c3cccc(-c4cc5cc(F)ccc5[nH]4)c3)CC2)c1
8,190,CCN1CCN(CCNC2CCN(c3cccc(-c4cc5ccccc5[nH]4)c3)CC2)CC1
9,700,O=S1(=O)CCN(CCNC2CCN(c3cccc(-c4cc5ccccc5[nH]4)c3)CC2)CC1
10,450,CN1CCN(C(C)(C)CNC2CCN(c3cccc(-c4cc5ccccc5[nH]4)c3)CC2)CC1
11,710,CN(C)CCNC1CCN(c2cccc(-c3cc4cc(F)ccc4[nH]3)c2)CC1
12,300,c1ccc(CN2CCN(CCNC3CCN(c4cccc(-c5cc6ccccc6[nH]5)c4)CC3)CC2)cc1
13,760,NC(=O)CCNC1CCN(c2cccc(-c3cc4cc(F)ccc4[nH]3)c2)CC1
14,800,c1cc(-c2cc3ccccc3[nH]2)cc(N2CCC(NCCCN3CCOCC3)CC2)c1
15,800,CC1CCN(CCNC2CCN(c3cccc(-c4cc5ccccc5[nH]4)c3)CC2)CC1
16,810,Cn1ncnc1CCNC1CCN(c2cccc(-c3cc4ccccc4[nH]3)c2)CC1
17,850,O=C1CN(CCNC2CCN(c3cccc(-c4cc5ccccc5[nH]4)c3)CC2)CCN1
18,1000,COC(=O)CCNC1CCN(c2cccc(-c3cc4ccccc4[nH]3)c2)CC1
19,890,Cn1ncnc1CCNC1CCN(c2cccc(-c3cc4cc(C#N)ccc4[nH]3)c2)CC1
20,740,c1cncc(CNC2CCN(c3cccc(-c4cc5ccccc5[nH]4)c3)CC2)c1
21,960,c1ccc(CNC2CCN(c3cccc(-c4cc5ccccc5[nH]4)c3)CC2)cc1

row,IC50 [nM],SMILES
1,720,c1ccc(CCNC2CCN(c3cccc(-c4cc5ccccc5[nH]4)c3)CC2)nc1
2,1100,CC(C)(C)OC(=O)N1CCCN(CCNC2CCN(c3cccc(-c4cc5ccccc5[nH]4)c3)CC2)CC1
3,570,CN(C)CCNC1CCN(c2cccc(-c3cc4ccccc4[nH]3)c2)CC1
4,890,Cc1ccc(CNC2CCN(c3cccc(-c4cc5ccccc5[nH]4)c3)CC2)o1
5,1300,FC(F)(F)CN1CCN(CCNC2CCN(c3cccc(-c4cc5ccccc5[nH]4)c3)CC2)CC1
6,880,c1cc(-c2cc3ccccc3[nH]2)cc(N2CCC(NCCN3CCCC3)CC2)c1
7,1300,CC(C)N1CCN(CCNC2CCN(c3cccc(-c4cc5c(F)cccc5[nH]4)c3)CC2)CC1
8,910,c1cc(-c2cc3ccccc3[nH]2)cc(N2CCC(NCCN3CCOCC3)CC2)c1
9,1300,Cn1ncnc1CCNC1CCN(c2cccc(-c3cc4cc(F)ccc4[nH]3)c2)CC1
10,1000,c1ccc(CNC2CCN(c3cccc(-c4cc5ccccc5[nH]4)c3)CC2)nc1
11,1300,COC(=O)CCNC1CCN(c2cccc(-c3cc4cc(F)ccc4[nH]3)c2)CC1
12,1700,CCCCNC1CCN(c2cccc(-c3cc4ccccc4[nH]3)c2)CC1
13,1400,c1cc(-c2cc3ccccc3[nH]2)cc(N2CCC(NCc3ccncc3)CC2)c1
14,1400,O=C(CCNC1CCN(c2cccc(-c3cc4cc(F)ccc4[nH]3)c2)CC1)N1CCCCC1
15,2700,c1ccc(CCNC2CCN(c3cccc(-c4cc5ccccc5[nH]4)c3)CC2)cc1
16,1700,CC(C)N1CCN(CCNC2CCN(c3cccc(NC(=O)OCc4ccccc4)c3)CC2)CC1
17,13000,CN1CCN(C2CCN(c3cccc(-c4cc5ccccc5[nH]4)c3)CC2)CC1
18,150,COC(=O)c1ccc2[nH]c(-c3cccc(N4CCC(NCCN5CCN(C(C)C)CC5)CC4)c3)cc2c1
19,9300,CC(C)N1CCN(CCNC2CCN(c3cccc(-c4[nH]c5ccc(F)cc5c4-c4c(-c5cccc(N6CCC(NCCN7CCN(C(C)C)CC7)CC6)c5)[nH]c5ccc(F)cc45)c3)CC2)CC1
20,150,CC(C)N1CCN(C(=O)CCNC2CCN(c3cccc(-c4cc5cc(C#N)ccc5[nH]4)c3)CC2)CC1
21,9700,O=C(Nc1ccccn1)C1CCN(c2cccc(-c3cc4cc(F)ccc4[nH]3)c2)CC1

row,IC50 [nM],SMILES
1,160,N#Cc1ccc2[nH]c(-c3cccc(N4CCC(NCc5cccc(N=[N+]=[N-])c5)CC4)c3)cc2c1
2,11000,CC(C)N1CCN(CCNC2CCN(c3cccc(-c4cc5c([nH]4)CCNC5)c3)CC2)CC1
3,11000,Fc1ccc2[nH]c(-c3cccc(N4CCC(NCCc5c[nH]c6ccccc56)CC4)c3)cc2c1
4,180,CN1CCC(NC2CCN(c3cccc(-c4cc5cc(F)ccc5[nH]4)c3)CC2)CC1
5,12000,Cc1c(-c2cccc(N3CCC(NCCN4CCN(C(C)C)CC4)CC3)c2)[nH]c2ccccc12
6,200,CC(C)N1CCN(CCNC2CCN(c3cccc(-c4cc5cc(N=[N+]=[N-])ccc5[nH]4)c3)CC2)CC1
7,12000,CC(C)N1CCN(CCOC2CCN(c3cccc(-c4cc5ccccc5[nH]4)c3)CC2)CC1
8,13600,CC(C)N1CCN(CCNC2CCN(C(=O)c3cccc(-c4cc5ccccc5[nH]4)c3)CC2)CC1
9,260,CN1CCN(C2(CNC3CCN(c4cccc(-c5cc6ccccc6[nH]5)c4)CC3)CCCCC2)CC1
10,14000,Cc1c(-c2cc3ccccc3[nH]2)cccc1N1CCC(NCCN2CCN(C(C)C)CC2)CC1
11,290,N#Cc1ccc2[nH]c(-c3cccc(N4CCC(NCc5cccnc5)CC4)c3)cc2c1
12,14000,CC(C)N1CCC(NC2CCN(c3cccc(-c4cc5cc(S(=O)(=O)NC(C)(C)C)ccc5[nH]4)c3)CC2)CC1
13,290,CN1CCN(C(=O)CCNC2CCN(c3cccc(-c4cc5ccccc5[nH]4)c3)CC2)CC1
14,15000,Cc1c(-c2cc3ccccc3[nH]2)cccc1N1CCC(NC2CCN(C)CC2)CC1
15,310,c1cc(-c2cc3ccccc3[nH]2)cc(N2CCC(NCCN3CCNCC3)CC2)c1
16,15800,CC(C)N1CCC(NC2CCN(c3nnc(-c4cc5cc(F)ccc5[nH]4)o3)CC2)CC1
17,320,c1cc(-c2cc3ccccc3[nH]2)cc(N2CCC(NCCN3CCCNCC3)CC2)c1
18,16000,CN1CCN(C2(CNC3CCN(c4cccc(-c5cc6cc(S(C)(=O)=O)ccc6[nH]5)c4)CC3)CCC2)CC1
19,320,CN1CCN(C(=O)CCNC2CCN(c3cccc(-c4cc5cc(C#N)ccc5[nH]4)c3)CC2)CC1
20,16000,CON(C)C(=O)c1ccc2[nH]c(-c3cccc(N4CCC(NCCN5CCN(C(C)C)CC5)CC4)c3)cc2c1
21,320,Cc1ccc(N2CCC(NCC3(N4CCN(C(C)C)CC4)CCC3)CC2)cc1-c1cc2cc(F)ccc2[nH]1

row,IC50 [nM],SMILES
1,17000,FC(F)(F)C(c1ccccc1)N1CCN(CCNC2CCN(c3cccc(-c4cc5ccccc5[nH]4)c3)CC2)CC1 (stereo not shown)
2,330,CC(C)N1CCN(CCNC2CCN(c3cccc(-c4cc5cc(F)c(F)cc5[nH]4)c3)CC2)CC1
3,340,Fc1ccc2[nH]c(-c3cccc(N4CCC(NCc5cccnc5)CC4)c3)cc2c1
4,20000,CC(C)N1CCN(CCNC2CCN(c3cccc(-c4cc5ccccc5o4)c3)CC2)CC1
5,350,Cc1ccc(N2CCC(NC3CCN(C)CC3)CC2)cc1-c1cc2ccccc2[nH]1
6,20000,CC(C)N1CCC(NC2CCN(c3cccc(-c4cc5cc(S(C)(=O)=O)ccc5[nH]4)c3)CC2)CC1
7,370,CC(C)N1CCN(CCNC2CCN(c3ccc4c(c3)-c3[nH]c5ccccc5c3CC4)CC2)CC1
8,21000,CC(C)N1CCN(CCNC2CCN(c3cccc(-c4cc5cc(S(F)(F)(F)(F)F)ccc5[nH]4)c3)CC2)CC1
9,370,CC(C)N1CCN(CCCNC2CCN(c3cccc(-c4cc5ccccc5[nH]4)c3)CC2)CC1
10,22000,Cc1c(-c2cccc(N3CCC(NC4CCN(C)CC4)CC3)c2)[nH]c2ccccc12
11,410,CC(C)N1CCN(CCNC2CCN(c3ccc(F)c(-c4cc5ccccc5[nH]4)c3)CC2)CC1
12,23000,Cc1ncncc1NC(=O)c1cccc(N2CCC(NCCN3CCN(C(C)C)CC3)CC2)c1
13,430,N#Cc1ccc2[nH]c(-c3cccc(N4CCC(NCc5ccccc5)CC4)c3)cc2c1
14,23000,Cc1ccc(N2CCC(NCCN3CCN(C(C)C)CC3)CC2)cc1-c1[nH]c2ccccc2c1C
15,430,CNC(=O)c1ccc2[nH]c(-c3cccc(N4CCC(NCCN5CCN(C(C)C)CC5)CC4)c3)cc2c1
16,24000,CC(C)N1CCN(CCNC2CCN(c3cccc(-c4cc5ccccc5s4)c3)CC2)CC1
17,440,CN1CCN(CC2(NC3CCN(c4cccc(-c5cc6ccccc6[nH]5)c4)CC3)CC2)CC1
18,25000,CN1CCC(NC2CCN(c3cncc(-c4cc5ccccc5[nH]4)c3)CC2)CC1
19,460,CN(C)CCNC1CCN(c2cccc(-c3cc4cc(C#N)ccc4[nH]3)c2)CC1
20,500,Cc1ccc(N2CCC(NC3CCN(C(C)C)CC3)CC2)cc1-c1cc2ccccc2[nH]1

row,SMILES,IC50 [nM]
1,CN1[C@@H]2CCC[C@H]1C[C@@H](NC1CCN(c3cccc(-c4cc5ccccc5[nH]4)c3)CC1)C2,1300
2,Cc1ccc2[nH]c(-c3cccc(N4CCC(NCCN5CCN(C(C)C)CC5)CC4)c3)cc2c1,200
3,CC(C)N1CCN(CCNC2CCN(c3cccc(-c4cc5cc([N+](=O)[O-])ccc5[nH]4)c3)CC2)CC1 [drawing 222],36

# Same assay, conditions: p97 ADP-Glo assay, differ from Table 2; read-out: ADP-Glo IC50
row,SMILES,IC50 [nM]
1,"CC(C)N1CCN(CCNC2CCN(c3cccc(-c4cc5cc([N+](=O)[O-])ccc5[nH]4)c3)CC2)CC1 [Compound 23, N-(2-(4-Isopropylpiperazin-1-yl)ethyl)-1-(3-(5-nitro-1H-indol-2-yl)phenyl)piperidin-4-amine]",40 ± 40

# Same assay, conditions: p97 ADP-Glo assay; read-out: inhibitor of the AAA ATPase (potency in words)
row,SMILES,IC50 [nM]
1,"CC(C)N1CCN(CCNC2CCN(c3cccc(-c4cc5cc([N+](=O)[O-])ccc5[nH]4)c3)CC2)CC1 [Compound 23, N-(2-(4-Isopropylpiperazin-1-yl)ethyl)-1-(3-(5-nitro-1H-indol-2-yl)phenyl)piperidin-4-amine]",40
